Like-named read-outs stand apart in the source and are kept apart here.
Columns and labels:
[1] = test system: Aβ40 in conditioned medium of cells stably expressing Amyloid Precursor Protein (APP); assay: In vitro BACE cell-based assay (Aβ40 in conditioned medium, sandwich ELISA);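 also: compounds added as a dilution series, secreted peptide quantified by europium time-resolved fluorescence readout, potency fitted from percent of control versus compound concentration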
[2] = biological target: Beta Secretase enzyme (BACE) (Homo sapiens, UniProt P56817); assay: In vitro enzymatic BACE FRET (fluorescence resonance energy transfer) assay; type: biochemical;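 also: fluorescence read after 1 h with 50 nM quenched peptide substrate spanning the BACE cleavage site, in pH 4.2 acetate buffer containing 10% DMSO and nonionic detergent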
[3] = Homo sapiens, HEK293, HEK cells, cell-based assay, read-out: HEK cell assay (IC50)
[4] = BACE enzyme assay, read-out: BACE1 FRET assay (IC50)
[5] = HEK cells, cell-based assay, read-out: HEK cell assay (IC50)
[6] = BACE enzyme FRET assay, read-out: BACE1 FRET assay (IC50)
[7] = Homo sapiens, HEK293, Table 1, HEK cells, read-out: HEK cell assay
[8] = Table 1, read-out: BACE1 FRET assay
[9] = Homo sapiens, HEK293, HEK cell-based assay IC50, read-out: HEK cell assay
[10] = BACE enzyme assay IC50, read-out: BACE1 FRET assay

Chain of Beta Secretase enzyme (BACE) (P56817 46-501): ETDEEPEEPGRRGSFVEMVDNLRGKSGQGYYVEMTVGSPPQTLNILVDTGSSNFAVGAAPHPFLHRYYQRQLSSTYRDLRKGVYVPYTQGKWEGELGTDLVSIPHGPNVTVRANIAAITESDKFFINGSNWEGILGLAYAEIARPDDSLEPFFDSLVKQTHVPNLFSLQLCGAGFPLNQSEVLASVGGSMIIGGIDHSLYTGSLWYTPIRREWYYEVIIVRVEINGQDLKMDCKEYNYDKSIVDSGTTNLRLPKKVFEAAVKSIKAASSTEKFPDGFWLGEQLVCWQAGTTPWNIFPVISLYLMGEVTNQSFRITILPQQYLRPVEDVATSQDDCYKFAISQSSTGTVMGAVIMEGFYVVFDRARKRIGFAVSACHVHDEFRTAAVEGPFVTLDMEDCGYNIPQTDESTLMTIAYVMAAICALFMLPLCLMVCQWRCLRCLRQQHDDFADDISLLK

Row | Compound | IC50 [1, 3] [µM] | IC50 [2, 4] [µM] | IC50 [2, 6] [µM] | other results
1 | CC(=O)N[C@@H](Cc1ccc(F)c(F)c1)[C@H](O)CN[C@H]1CC2(CCC2)Oc2ncc([C@H](F)C(C)(C)C)cc21 [compound 177] | 0.00934 | 0.00217 | – | –
2 | COC(C)C(=O)NC(Cc1ccc2c(c1)OCO2)C(O)CNC1CC2(CC(O)C2)Oc2ccc(CC(C)(C)C)cc21 [compound 269, (2R)—N-((1S,2R)-1-(1,3-benzodioxol-5-ylmethyl)-3-(((2r,3′R,4S)-6-(2,2-dimethylpropyl)-3′-hydroxy-3,4-dihydrospiro[chromene-2,1′-cyclobutan]-4-yl)amino)-2-hydroxypropyl)-2-(methyloxy)propanamide] | – | – | 0.242 | IC50 [1, 5]: 0.103 µM
3 | CO[C@H](C)C(=O)N[C@@H](Cc1cc(F)c2c(c1)OCO2)[C@H](O)CN[C@H]1CC2(CCC2)Oc2ncc(CC(C)(C)C)cc21 [compound 303] | 0.0214 | – | 0.00901 | –
4 | C#CCCC(=O)N[C@@H](Cc1cccc(F)c1)[C@H](O)CN[C@H]1CC2(CCC2)Oc2ncc(CC(C)(C)C)cc21 [compound 859] | – | – | – | IC50 ([1]; Homo sapiens, HEK293, cell-based assay, HEK cells, IC50's in uM, read-out: HEK cell assay): 0.027 µM; IC50 ([2]; BACE enzyme assay, IC50's in uM, read-out: BACE1 FRET assay): 0.004 µM
5 | CO[C@H](C)C(=O)N[C@@H](Cc1ccc(F)c(Cl)c1)[C@H](O)CN[C@H]1CC2(CCC2)Oc2ncc(CC(C)(C)F)cc21 [compound 72] | 0.0605 | 0.0291 | – | –
6 | CC(C)(C)Cc1cnc2c(c1)[C@@H](NC[C@@H](O)[C@H](Cc1cccc(C#N)c1)NC(=O)[C@@H](O)C(F)(F)F)CC1(CCC1)O2 [compound 62] | 0.00983 | 0.00401 | – | –
7 | CO[C@@H](C)C(=O)N[C@@H](Cc1cccc(F)c1)[C@H](O)CN[C@H]1CC2(CCC2)Oc2ncc(CC(C)(C)C)cc21 [compound 361] | – | – | – | IC50 [1, 7]: 0.00923 µM; IC50 [2, 8]: 0.00658 µM
8 | CC(=O)N[C@@H](Cc1ccc(F)cc1)[C@H](O)CN[C@H]1CC2(CCC2)Oc2ncc(OC(C)(F)F)cc21 [compound 146] | 1.25 | 0.421 | – | –
9 | CO[C@H](C)C(=O)N[C@@H](Cc1cccc(F)c1F)[C@H](O)CN[C@H]1CC2(CCC2)Oc2ncc(CC(C)(C)F)cc21 [compound 71] | 0.0927 | 0.0339 | – | –
10 | CC(=O)N[C@@H](Cc1ccc(F)c(OC(F)(F)F)c1)[C@H](O)CN[C@H]1CC2(CCC2)Oc2ncc(CC(C)(C)F)cc21 [compound 77] | 0.016 | 0.00488 | – | –
11 | CC(=O)N[C@@H](Cc1ccccc1)[C@H](O)CN[C@H]1CC2(CCC2)Oc2ncc(CC3CC3)cc21 [compound 202] | 0.0659 | – | 0.0342 | –
12 | COCC(=O)N[C@@H](Cc1cccc(C#N)c1)[C@H](O)CN[C@H]1CC2(CCC2)Oc2ncc(CC(C)(C)F)cc21 [compound 57] | 0.0053 | 0.00294 | – | –
13 | CO[C@H](C)C(=O)N[C@@H](Cc1ccc2c(c1)OCO2)[C@H](O)CN[C@H]1CC2(CCC2)Oc2ncc(CC(C)(C)C(F)(F)F)cc21 [compound 363] | – | – | – | IC50 [1, 7]: 0.16 µM; IC50 [2, 8]: 0.049 µM
14 | CO[C@@H](C)C(=O)N[C@@H](Cc1ccc2c(c1)OCO2)[C@H](O)CN[C@H]1CC2(CCC2)Oc2ncc([C@H](F)C(C)(C)C)cc21 [compound 331] | – | – | – | IC50 [1, 7]: 0.0446 µM; IC50 [2, 8]: 0.0515 µM
15 | COC(C)C(=O)NC(Cc1cc(F)cc(F)c1)C(O)CNC1CC2(CCC2)Oc2ncc(CC(C)(C)C)cc21 [compound 102, (R)—N-((2S,3R)-1-(3,5-difluorophenyl)-3-hydroxy-4-((S)-6-neopentyl-3,4-dihydrospiro[cyclobutane-1,2H-pyrano[2,3-b]pyridin-4-ylamino)butan-2-yl)-2-methoxypropanamide] | – | 0.0053 | – | IC50 [1, 5]: 0.0106 µM
16 | COCC(=O)N[C@@H](Cc1ccc(F)cc1)[C@H](O)CN[C@H]1CC2(CCC2)Oc2ccc(CC(C)(C)C)nc21 [compound 123, N-((1S,2R)-3-(((4′S)-6′-(2,2-dimethylpropyl)-3′,4′-dihydrospiro[cyclobutane-1,2′-pyrano[3,2-b]pyridin]-4′-yl)amino)-1-((4-fluorophenyl)methyl)-2-hydroxypropyl)-2-(methyloxy)acetamide] | 3.81 | 3.72 | – | –
17 | CO[C@H](C)C(=O)N[C@@H](Cc1cccc(F)c1)[C@H](O)CN[C@H]1CC2(CCC2)Oc2ncc(CC(C)(C)C(F)F)cc21 [compound 219] | 0.00599 | – | 0.00508 | –
18 | COCC(=O)N[C@@H](Cc1cccc(F)c1)[C@H](O)CN[C@H]1CC2(CCC2)Oc2cnc(CC(C)(C)C)cc21 [compound 122] | 0.0231 | 0.00754 | – | –
19 | CC(=O)N[C@@H](Cc1ccc(F)cc1)[C@H](O)CN[C@H]1CC2(CCC2)Oc2c1cc(CC(C)(C)C)nc2NCC(F)(F)F [compound 144] | 0.634 | 0.0944 | – | –
20 | CC(C)(C)Cc1cnc2c(c1)[C@@H](NC[C@@H](O)[C@H](Cc1cc(F)cc(F)c1)NC(=O)CCl)CC1(CCC1)O2 [compound 104] | – | 0.00369 | – | IC50 [1, 5]: 0.0187 µM
21 | CO[C@H](C)C(=O)N[C@@H](Cc1ccc2c(c1)OCO2)[C@H](O)CN[C@H]1CC2(CCC2)Oc2ncc(CC(C)(F)F)cc21 [compound 279] | 0.108 | – | 0.126 | –

Row | Compound | IC50 [1, 3] [µM] | IC50 [2, 4] [µM] | IC50 [2, 6] [µM] | other results
22 | COCC(=O)N[C@@H](Cc1ccc(F)cc1)[C@H](O)CN[C@H]1CC2(CCC2)Oc2ncc(CC(C)C)cc21 [compound 332] | – | – | – | IC50 [1, 7]: 0.0189 µM; IC50 [2, 8]: 0.0109 µM
23 | COCC(=O)N[C@@H](Cc1cc(F)cc(F)c1)[C@H](O)CN[C@H]1CC2(CCCC2)C(=O)c2ccc(CC(C)(C)C)cc21 [compound 89] | 0.0586 | 0.00495 | – | –
24 | CC(=O)N[C@@H](Cc1ccc(F)c(Br)c1)[C@H](O)CN(C)[C@H]1CC2(CCC2)Oc2ncc(CC(C)(C)C)cc21 [compound 354] | – | – | – | IC50 [1, 7]: 3.49 µM; IC50 [2, 8]: 4.78 µM
25 | CC(=O)N[C@@H](Cc1ccc(F)cc1)[C@H](O)CN[C@H]1CC2(CCC2)Oc2ncc(CC3(C(F)(F)F)CC3)cc21 [compound 310] | 0.166 | – | 0.0505 | –
26 | COCC(=O)N[C@@H](Cc1cccc(F)c1)[C@H](O)CN[C@H]1CC2(CCC2)Oc2ncc(CC(C)(C)C(F)(F)F)cc21 [compound 73] | 0.0531 | 0.016 | – | –
27 | COCC(=O)NC(Cc1ccc2c(c1)OCO2)C(O)CNC1CC2(CC(O)C2)Oc2ncc(CC(C)C)cc21 [compound 246, N-((1S,2R)-1-(1,3-benzodioxol-5-ylmethyl)-2-hydroxy-3-(((1s,3S,4′S)-3-hydroxy-6′-(2-methylpropyl)-3′,4′-dihydrospiro[cyclobutane-1,2′-pyrano[2,3-b]pyridin]-4′-yl)amino)propyl)-2-(methyloxy)acetamide] | 0.0164 | – | 0.0135 | –
28 | COCC(=O)N[C@@H](Cc1ccc2c(c1)OC(C)(C)O2)[C@H](O)CN[C@H]1CC2(CCC2)Oc2ncc(CC(C)(C)C)cc21 [compound 293] | 0.333 | – | 0.484 | –
29 | CC(=O)N[C@@H](Cc1cc(F)c2c(c1)OCO2)[C@H](O)CN[C@H]1CC2(CCC2)Oc2ncc(CC(C)(C)C)cc21 [compound 306] | 0.00747 | – | 0.00428 | –
30 | COCC(=O)N[C@@H](Cc1cc(F)cc(F)c1)[C@H](O)CN[C@H]1CC2(CCC2)Oc2ncc(CC(C)(C)F)cc21 [compound 286] | 0.00599 | – | 0.00332 | –
31 | CCc1cnc2c(c1)[C@@H](NC[C@@H](O)[C@H](Cc1cc(F)cc(-c3nccs3)c1)NC(=O)COC)CC1(CCC1)O2 [compound 728] | – | – | – | IC50 [1, 9]: 0.108 µM; IC50 [2, 10]: 0.03 µM
32 | CC(=O)N[C@@H](Cc1ccc2c(c1)OCO2)[C@H](O)CN[C@H]1CC2(CCC2)Oc2ncc(CC(C)(C)C#N)cc21 [compound 88] | 0.016 | 0.0485 | – | –
33 | COCC(=O)N[C@@H](Cc1ccc2c(c1)OCO2)[C@H](O)CN[C@H]1CC2(CCC2)Oc2cnc(CC(C)(C)C)cc21 [compound 119] | 0.127 | 0.203 | – | –
34 | CNc1nc(CC(C)(C)C)cc2c1OC1(CCC1)C[C@@H]2NC[C@@H](O)[C@H](Cc1cccc(F)c1)NC(=O)[C@@H](C)OC [compound 139] | 0.00899 | 0.042 | – | –
35 | CC(=O)N[C@@H](Cc1cc(F)cc(F)c1)[C@H](O)CN[C@H]1CC(C)(C)N2CCOc3cc(CC(C)(C)C)cc1c32 [compound 725] | – | – | – | IC50 [1, 9]: 0.178 µM; IC50 [2, 10]: 0.059 µM
36 | COCC(=O)N[C@@H](CC1CC1)[C@H](O)CN[C@H]1CC2(CCC2)Oc2ncc(CC(C)(C)C)cc21 [compound 213] | 0.0787 | – | 0.057 | –
37 | CC(=O)NC(Cc1ccc2c(c1)OCO2)C(O)CNC1CC2(CC(C)C2)Oc2ncc(CC(C)C)cc21 [compound 132, N-((1S,2R)-1-(1,3-benzodioxol-5-ylmethyl)-2-hydroxy-3-(((1s,3R,4′S)-3-methyl-6′-(2-methylpropyl)-3′,4′-dihydrospiro[cyclobutane-1,2′-pyrano[2,3-b]pyridin]-4′-yl)amino)propyl)acetamide] | 0.066 | 0.0252 | – | –
38 | COCC(=O)N[C@@H](Cc1ccc2c(c1)OCO2)[C@H](O)CN[C@H]1CC2(CCC2)Oc2ccc(CC(C)(C)C)cc21 [compound 290] | 0.0549 | – | 0.0231 | –
39 | CO[C@H](C)C(=O)N[C@@H](Cc1cc(Br)c2c(c1)OCO2)[C@H](O)CN[C@H]1CC2(CCC2)Oc2ncc(CC(C)(C)C)cc21 [compound 210, (2R)—N-((1S,2R)-1-((7-bromo-1,3-benzodioxol-5-yl)methyl)-3-(((4′S)-6′-(2,2-dimethylpropyl)-3′,4′-dihydrospiro[cyclobutane-1,2′-pyrano[2,3-b]pyridin]-4′-yl)amino)-2-hydroxypropyl)-2-(methyloxy)propanamide] | 0.224 | – | 0.163 | –
40 | CC(=O)N[C@@H](Cc1ccc2c(c1)OCO2)[C@H](O)CN[C@H]1CC2(CC(F)(F)C2)Oc2ncc(CC(C)(C)C)cc21 [compound 55] | 0.083 | 0.0236 | – | –
41 | CO[C@H](C)C(=O)N[C@@H](Cc1ccc2c(c1)OCO2)[C@H](O)CN[C@H]1CC2(CCC2)Oc2ncc(C[C@H](C)C(F)(F)F)cc21 [compound 340] | – | – | – | IC50 [1, 7]: 0.0906 µM; IC50 [2, 8]: 0.148 µM

— patent US8163909B2, “Substituted hydroxyethyl amine compounds as beta-secretase modulators and methods of use” (Amgen Inc., priority 2007, dated 2012)
